Reference: patent publication US8557380B2, “Form of hydroquinone and production thereof” (Rhodia Operations, priority 2006, dated 2013)
Where two headings read alike, the source gives them in different places.

What was measured:
[1] = particles with dimensions of less than 100 μm
Text: The level of the fine particles is defined as the percentage by weight of the particles with dimensions of less than 100 μm.
Particles which pass through a sieve having a mesh size of 100 μm are regarded according to the invention as fine particles.

[2] = undried product
Procedure: The densities are measured on an undried product according to the test described in the European Phatmacopeia standard [Volume 1, p. 256 (2004), 5th edition], with the only difference that the 250 ml of test specimen is replaced by a 1 liter test specimen.

[3] = stirred, final concentration 4.8% by weight
Procedure: These measurements correspond to a test which consists in measuring the time necessary to dissolve said amount in water maintained at ambient temperature (20° C.) and kept stirred, for example using a propeller stirrer with 4 inclined blades.

[4] = final concentration 2% by weight
Procedure: A similar test is carried out in order to determine the rate of dissolution of the flakes in acrylic acid.
The test consists in defining the time necessary to dissolve the amount of flakes necessary in order to obtain a final concentration of hydroquinone in the acrylic acid of 2% by weight.

[5] = sieve mesh size 2.5 mm
Text: In order to define the particle size of the product of the invention, the percentage by weight of the particles with dimensions of less than 2.5 mm, that is to say particles which pass through a sieve having a mesh size of 2.5 mm, is also defined.

| % by weight of particles passing through a sieve with a mesh size of 100 μm (level of fine particles) [1] [% by weight] | Loose bulk density [2] [g/mL] | Tapped bulk density [2] [g/mL] | Dissolution time in water at 20° C. (production of a 4.8% by weight solution) [3] [min] | Dissolution time in acrylic acid at 20° C. (production of a 2.0% by weight solution) [4] [min] | % by weight of particles passing through a sieve with a mesh size of 100 μm (level of fine particles) ([1]; listed as hydroquinone in the powder form) [% by weight] | percentage by weight of the particles with dimensions of less than 2.5 mm [5] [% by weight] | SMILES |
| --- | --- | --- | --- | --- | --- | --- | --- |
| 0.9 | 0.53 | 0.66 | 14 | 30 | – | – | Oc1ccc(O)cc1 [Example 5, hydroquinone] |
| 0.8 | 0.46 | 0.61 | 14 | 30 | – | – | Oc1ccc(O)cc1 [Example 4, hydroquinone] |
| 0.7 | 0.47 | 0.65 | 15 | 30 | – | – | Oc1ccc(O)cc1 [Example 2, hydroquinone] |
| 0.9 | 0.48 | 0.67 | 18 | 35 | – | – | Oc1ccc(O)cc1 [Example 3, hydroquinone] |
| – | – | – | 9 | 20 | ~20 | 100 | Oc1ccc(O)cc1 [hydroquinone powder, hydroquinone] |
| 0.8 | 0.52 | 0.70 | 21 | 45 | – | – | Oc1ccc(O)cc1 [Example 1, hydroquinone] |
